In patent US20210261621A1, “Preparation of Dilipid Polymixins and Use Thereof as Antimicrobial Adjuvants” (priority 2018, published 2021):
Values after ≈ are worked out from the molar mass of the structure shown. Where two headings read alike, the source gives them in different places. Positions of bridges follow the written chain, without caps; N, C: chain ends. Non-standard residues stand in square brackets, D forms with d. Residues, ends and D or L forms follow the SMILES beside them. *: point of attachment. Octanoyl = CCCCCCCC(=O)*; Dab = NCC[C@H](N)C(=O)O; Butyryl = CCCC(=O)*

What was measured:
[1] = system: P. aeruginosa 91433; type: cell-based, Pseudomonas aeruginosa; conditions: 91433
Protocol: (§1) We then addressed the possibility for the dilipid polymyxins to display enhanced antibacterial activity against colistin-resistant Gram-negative pathogens. […] The extended hydrophobic region of the dilipid polymyxin may provide additional hydrophobic interactions to the outer membrane of colistin-resistant organisms. Eight MDR colistin-resistant Gram-negative bacterial isolates were tested, including two E. coli isolates harboring the mcr-1 plasmid-encoded polymyxin resistance gene. We found no difference between the antibacterial activity of dilipid polymyxins and colistin against colistin-resistant Gram-negative bacteria (Table 3).
(§2) Bacterial strains were either obtained from the American Type Culture Collection (ATCC), Canadian National Intensive Care Unit (CAN-ICU) surveillance study or the Canadian Ward Surveillance (CANWARD) study. Strains from both CAN-ICU and CANWARD are isolates recovered from patients diagnosed with a presumed infectious disease that were admitted in a participating medical center across Canada. Efflux-deficient strain PAO200 (lacking MexAB-OprM efflux system) and PA0750 (lacking MexAB-OprM, MexCD-OprJ, MexEF-OprN, MexJK and MexXY efflux systems, and the outer membrane protein OpmH) were kindly gifted by Dr. Ayush Kumar (University of Manitoba).
(§3) The in vitro antibacterial activity of the compounds studied were assessed by broth microdilution susceptibility testing following CLSI guidelines. Bacterial cultures were grown overnight prior to the assay. The overnight grown cultures were diluted in saline to 0.5 McFarland turbidity, followed by 1:50 dilution in Mueller-Hinton broth (MHB) for inoculation to a final concentration of approximately 5×10^5 colony forming units/mL. Testing was performed on 96-well plates where the tested compounds were 2-fold serially diluted in MHB and incubated with equal volumes of bacterial inoculum at 37° C. for 18 h. […] Wells containing MHB with or without bacterial cells were used as positive or negative control, respectively.

[2] = system: P. aeruginosa 114228; type: cell-based, Pseudomonas aeruginosa; conditions: 114228
Protocol: as §1, §2, §3

[3] = system: P. aeruginosa 101243; type: cell-based, Pseudomonas aeruginosa; conditions: 101243
Protocol: as §1, §2, §3

[4] = system: A. baumannii 92247; type: cell-based, Acinetobacter baumannii; conditions: 92247
Protocol: as §1, §2, §3

[5] = system: P. aeruginosa CAN-ICU 62308; type: cell-based, Pseudomonas aeruginosa
Source text: as §2, §3

[6] = system: P. aeruginosa ATCC 27853; type: cell-based, Pseudomonas aeruginosa
Source text: as §2, §3

[7] = system: P. aeruginosa PA095; type: cell-based, Pseudomonas aeruginosa; conditions: PA095
Source text: as §2, §3

[8] = system: P. aeruginosa PA262-101856; type: cell-based, Pseudomonas aeruginosa
Source text: as §2, §3

[9] = system: P. aeruginosa PA101885; type: cell-based, Pseudomonas aeruginosa; conditions: PA101885
Source text: as §2, §3

[10] = system: P. aeruginosa PA260-97103; type: cell-based, Pseudomonas aeruginosa; conditions: PA260-97103
Source text: as §2, §3

[11] = system: P. aeruginosa PA100036; type: cell-based, Pseudomonas aeruginosa
Source text: as §2, §3

[12] = system: P. aeruginosa PA259-96918; type: cell-based, Pseudomonas aeruginosa; conditions: PA259-96918
Source text: as §2, §3

[13] = system: P. aeruginosa PA264-104354; type: cell-based, Pseudomonas aeruginosa; conditions: PA264-104354
Source text: as §2, §3

[14] = system: P. aeruginosa PAO1; type: cell-based, Pseudomonas aeruginosa
Source text: as §2, §3

[15] = system: MRSE CAN-ICU 61589; type: cell-based, S. epidermidis
Source text: as §2, §3

[16] = system: K. pneumoniae ATCC 13883; type: cell-based, Klebsiella pneumoniae
Source text: as §2, §3

[17] = system: K. pneumoniae 116381; type: cell-based, Klebsiella pneumoniae
Source text: as §2, §3

[18] = system: E. coli 94393; type: cell-based, Escherichia coli; conditions: 94393
Protocol: as §1, §2, §3

[19] = system: E. coli 94474; type: cell-based, Escherichia coli; conditions: 94474
Protocol: as §1, §2, §3

[20] = system: A. baumannii ATCC 17978; type: cell-based, Acinetobacter baumannii
Source text: as §2, §3

[21] = system: A. baumannii LAC-4; type: cell-based, Acinetobacter baumannii; conditions: LAC-4
Source text: as §2, §3

[22] = system: A. baumannii CAN-ICU 63169; type: cell-based, Acinetobacter baumannii
Source text: as §2, §3

[23] = system: A. baumannii AB027; type: cell-based, Acinetobacter baumannii
Source text: as §2, §3

[24] = system: A. baumannii AB031; type: cell-based, Acinetobacter baumannii
Source text: as §2, §3

[25] = system: A. baumannii 110193; type: cell-based, Acinetobacter baumannii
Source text: as §2, §3

[26] = system: MSSE CANWARD-2008 81388; type: cell-based, Staphylococcus epidermidis; conditions: for MIC: MSSE CANWARD-2008 81388 (methicillin-susceptible Staphylococcus epidermidis)
Source text: as §2, §3

`CCCC(=O)NCC[C@H](NC(=O)CCC)C(=O)N[C@H](C(=O)N[C@@H](CCN)C(=O)N[C@H]1CCNC(=O)[C@H]([C@@H](C)O)NC(=O)[C@H](CCN)NC(=O)[C@H](CCN)NC(=O)[C@H](CC(C)C)NC(=O)[C@@H](Cc2ccccc2)NC(=O)[C@H](CCN)NC1=O)[C@@H](C)O` [Compound 1, Dibutyric Acid (Di-C4) Polymyxin] (Butyryl-[Dab](Butyryl)T[Dab][Dab][Dab][dF]L[Dab][Dab]T; lactam 4-C) showed an MIC [1] of over 128 µg/mL, an MIC [2] of over 128 µg/mL and an MIC [3] of over 128 µg/mL. It also gave an MIC [4] of over 64 µg/mL, an MIC ([5]; P. aeruginosa CAN-ICU 62308) of over 128 µg/mL and an MIC ([6]; P. aeruginosa ATCC 27853) of over 128 µg/mL. For the same compound, the MIC [7] was 64 µg/mL (≈ 53.2 µM), the MIC ([8]; P. aeruginosa PA262-101856) was over 128 µg/mL and the MIC [9] was 128 µg/mL (≈ 106 µM). For the same compound, the MIC [10] was 2 µg/mL (≈ 1.66 µM), the MIC ([11]; P. aeruginosa PA100036) was over 128 µg/mL and the MIC [12] was 64 µg/mL (≈ 53.2 µM). The MIC [13] was 128 µg/mL (≈ 106 µM), the MIC ([14]; P. aeruginosa PAO1 (wild type)) was 128 µg/mL (≈ 106 µM) and the MIC ([15]; MRSE CAN-ICU 61589 (methicillin-resistant S. epidermidis)) was over 128 µg/mL. The MIC ([16]; K. pneumoniae ATCC 13883) was over 128 µg/mL, the MIC ([17]; K. pneumoniae 116381) was over 128 µg/mL and the MIC [18] was over 64 µg/mL. It also gave an MIC [19] of over 64 µg/mL, an MIC ([20]; A. baumannii ATCC 17978) of over 128 µg/mL and an MIC [21] of 128 µg/mL (≈ 106 µM). It also gave an MIC ([22]; A. baumannii CAN-ICU 63169) of over 128 µg/mL, an MIC ([23]; A. baumannii AB027) of over 128 µg/mL and an MIC ([24]; A. baumannii AB031) of over 128 µg/mL. It also gave an MIC ([25]; A. baumannii 110193) of over 128 µg/mL and an MIC [26] of over 128 µg/mL.

`CCCCCCCC(=O)NCC[C@H](NC(=O)CCCCCCC)C(=O)N[C@H](C(=O)N[C@@H](CCN)C(=O)N[C@H]1CCNC(=O)[C@H]([C@@H](C)O)NC(=O)[C@H](CCN)NC(=O)[C@H](CCN)NC(=O)[C@H](CC(C)C)NC(=O)[C@@H](Cc2ccccc2)NC(=O)[C@H](CCN)NC1=O)[C@@H](C)O` [Compound 2, Dioctanoic Acid (Di-C8) Polymyxin] (Octanoyl-[Dab](Octanoyl)T[Dab][Dab][Dab][dF]L[Dab][Dab]T; lactam 4-C) gave an MIC [1] of 4 µg/mL (≈ 3.04 µM), an MIC [2] of 4 µg/mL (≈ 3.04 µM) and an MIC [3] of 32 µg/mL (≈ 24.3 µM). For the same compound, the MIC [4] was 8 µg/mL (≈ 6.08 µM), the MIC ([5]; CAN-ICU 62308) was 8 µg/mL (≈ 6.08 µM) and the MIC ([6]; ATCC 27853) was 8 µg/mL (≈ 6.08 µM). It also gave an MIC [7] of 2 µg/mL (≈ 1.52 µM), an MIC ([8]; PA262-101856) of 8 µg/mL (≈ 6.08 µM) and an MIC [9] of 4 µg/mL (≈ 3.04 µM). It also gave an MIC [10] of 2 µg/mL (≈ 1.52 µM), an MIC ([11]; PA100036) of 4 µg/mL (≈ 3.04 µM) and an MIC [12] of 2 µg/mL (≈ 1.52 µM). It also gave an MIC [13] of 4 µg/mL (≈ 3.04 µM), an MIC ([14]; PAO1) of 4 µg/mL (≈ 3.04 µM) and an MIC ([15]; CAN-ICU 61589) of 16 µg/mL (≈ 12.2 µM). The MIC ([16]; ATCC 13883) was over 128 µg/mL, the MIC [17]; 116381 was over 128 µg/mL and the MIC [18] was 4 µg/mL (≈ 3.04 µM). The MIC [19] was 4 µg/mL (≈ 3.04 µM), the MIC ([20]; ATCC 17978) was 32 µg/mL (≈ 24.3 µM) and the MIC [21] was 16 µg/mL (≈ 12.2 µM). For the same compound, the MIC ([22]; CAN-ICU 63169) was 64 µg/mL (≈ 48.6 µM), the MIC ([23]; AB027) was 32 µg/mL (≈ 24.3 µM) and the MIC ([24]; AB031) was 8 µg/mL (≈ 6.08 µM). For the same compound, the MIC [25]; 110193 was 16 µg/mL (≈ 12.2 µM), the MIC [26] was 8 µg/mL (≈ 6.08 µM) and the “fold better MIC than colistin” value ([26]; methicillin-susceptible Staphylococcus epidermidis) was 32 fold.
